What was measured:
Assay in all cases: relative viability (nuclei count vs DMSO), 5 days (fraction); higher = more cells survive
[1] = compound: CN(C)CC1=CC(=CC=C1)N=C(C2=CC=CC=C2)C3=C(NC4=C3C=CC(=C4)C(=O)N(C)C)O + CS(=O)(=O)N1CCN(Cc2cc3nc(-c4cccc5[nH]ncc45)nc(N4CCOCC4)c3s2)CC1 [Pictilisib] (partner 1 µM)
Summary of the method: (§1)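 Relative viability divides the nuclei count in treated wells by that in vehicle wells. Lung cancer cell lines were seeded in 1536-well plates, dosed by pin tool the next day, and fixed and stained after 5 days in one step with final 0.05% Triton X-100, 1% formaldehyde and 1 ug/ml Hoechst. Dosing was a single drug or a fixed anchor-drug dose plus five library-drug doses (not always all listed) in √10 steps, and values are medians of duplicate plates imaged at 4×.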

[2] = compound: CN(C)CC1=CC(=CC=C1)N=C(C2=CC=CC=C2)C3=C(NC4=C3C=CC(=C4)C(=O)N(C)C)O + NC(=O)Nc1cc(-c2cccc(F)c2)sc1C(=O)N[C@H]1CCCNC1 [AZD7762] (partner 0.2 µM)
Summary of the method: as §1

[3] = compound: CN(C)CC1=CC(=CC=C1)N=C(C2=CC=CC=C2)C3=C(NC4=C3C=CC(=C4)C(=O)N(C)C)O + Cc1nc(NC(=O)N2CCC[C@H]2C(N)=O)sc1-c1ccnc(C(C)(C)C(F)(F)F)c1 [Alpelisib] (partner 2 µM)
Summary of the method: as §1

[4] = compound: CN(C)CC1=CC(=CC=C1)N=C(C2=CC=CC=C2)C3=C(NC4=C3C=CC(=C4)C(=O)N(C)C)O + N=C(N)NC(=N)NCCc1ccccc1 [Phenformin] (partner 250 µM)
Summary of the method: as §1

Cell Line	relative viability ([1]; first compound 0.08 µM)	relative viability ([1]; first compound 0.253 µM)	relative viability ([1]; first compound 0.8 µM)	relative viability ([1]; first compound 2.53 µM)	relative viability ([1]; first compound 8 µM)	relative viability ([2]; first compound 0.08 µM)	relative viability ([2]; first compound 0.253 µM)	relative viability ([2]; first compound 0.8 µM)	relative viability ([2]; first compound 2.53 µM)	relative viability ([2]; first compound 8 µM)	relative viability ([3]; first compound 0.08 µM)	relative viability ([3]; first compound 0.253 µM)	relative viability ([3]; first compound 0.8 µM)	relative viability ([3]; first compound 2.53 µM)	relative viability ([3]; first compound 8 µM)	relative viability ([4]; first compound 0.08 µM)	relative viability ([4]; first compound 0.253 µM)	relative viability ([4]; first compound 0.8 µM)	relative viability ([4]; first compound 2.53 µM)	relative viability ([4]; first compound 8 µM)
NCI-H441	0.451	0.471	0.484	0.481	0.335	1.19	1.06	1	1.2	1.06	0.717	0.761	0.642	0.834	0.495	0.828	0.816	0.784	0.878	0.886
NCI-H460	0.366	0.295	0.311	0.313	0.321	0.667	0.511	0.636	–	0.664	0.521	0.454	0.467	0.401	0.229	0.592	0.491	0.558	0.43	0.449
NCI-H596	0.383	0.432	0.384	0.374	0.429	1.22	1.29	0.979	1.06	0.987	0.504	0.491	0.459	0.536	0.447	0.693	0.625	0.769	0.806	0.742
NCI-H647	0.476	0.475	0.409	0.364	0.413	0.513	0.483	0.463	0.48	0.445	1.2	1.14	1.14	0.98	0.66	0.521	0.539	0.463	0.555	0.318
NCI-H650	1	0.789	0.955	0.768	0.766	1.4	0.938	1.16	0.897	0.855	1.05	0.956	1.2	0.945	0.825	0.49	0.495	0.459	0.43	0.433
NCI-H727	0.515	0.32	0.397	0.47	0.572	–	0.546	0.577	0.867	0.583	0.631	0.564	0.621	0.603	0.608	0.595	0.474	0.53	0.578	0.573
NCI-H838	0.529	0.42	0.469	0.397	0.429	0.951	0.928	0.948	0.831	0.903	1.06	0.956	0.977	0.883	0.934	0.57	0.584	0.585	0.537	0.503
NCI-H1355	0.495	0.507	0.329	0.402	0.341	0.869	0.665	0.597	0.541	0.641	0.802	0.724	0.681	0.838	0.849	0.483	0.463	0.421	0.421	0.392

Reference: the supplement of paper PMC10307832
